From US12503454B2, “LPA receptor antagonists and uses thereof” (Gilead Sciences, Inc., priority 2021, dated 2025) come the findings set out here.

Chain of human LPAR1 (Q92633 whole entry): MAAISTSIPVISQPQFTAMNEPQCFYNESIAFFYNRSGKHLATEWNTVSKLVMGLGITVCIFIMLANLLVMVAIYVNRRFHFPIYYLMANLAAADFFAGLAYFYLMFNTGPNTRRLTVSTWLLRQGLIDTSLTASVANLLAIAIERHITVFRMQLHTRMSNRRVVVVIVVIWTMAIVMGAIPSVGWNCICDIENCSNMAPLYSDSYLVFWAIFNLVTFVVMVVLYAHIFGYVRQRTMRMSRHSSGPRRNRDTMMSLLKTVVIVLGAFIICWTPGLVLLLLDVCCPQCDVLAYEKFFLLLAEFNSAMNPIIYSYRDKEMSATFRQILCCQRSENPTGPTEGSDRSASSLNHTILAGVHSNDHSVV

The assay concerns the target human LPAR1 (Homo sapiens, UniProt Q92633). Kind of assay: LPAR1 intracellular calcium mobilization assay (antagonist mode, FLIPR). Type of assay: cell-based. The conditions noted are these: CHO-K1 EDG2 cells expressing human LPAR1; test compound 0.5 nM to 10 μM pre-incubated 60 minutes at 37° C., then LPA 18:2 at EC80 concentration (100 nM). The procedure: In vitro LPAR1 activity was measured in an intracellular calcium mobilization assay. CHO-K1 EDG2 cells (DiscoverX cat #93-0644C2) expressing human LPAR1 (NM_001401.3) were seeded in a total volume of 25 μL of Dulbecco's Modification of Eagle's Medium (DMEM) with 10% Fetal Bovine Serum, 1× PenStrepGlutamine, 300 μg/ml Hygromycin, and 800 μg/ml G418 into 384-well tissue culture plate (Grenier #781091) at 15,000 cells/well and incubated at 37° C. overnight. Prior to testing, 25 μL Calcium Loading Dye Component A (FLIPR Calcium 6 Assay Kit Molecular Device # R8190) and 2.5 mM Probenecid (Invitrogen # P36400, prepared fresh) in Hank's Balanced Salt Solution (Corning #21-023-CV), 20 mM HEPES (Corning #25-060-CI), 0.1% Bovine Serum Albumin (Sigma-Aldrich # A7906-500G) was add to the cells for 60 minutes at 37° C.
Agonist dose curves of LPA 18:2 (Avanti Polar Lipids cat #857138, 0.5 nM to 10 μM) were recorded to determine the LPA 18:2 EC80 for subsequent antagonist assays. For agonist dose curves, cells were removed from the incubator 2 hours after dye loading and transferred to the FLIPR Tetra instrument (Molecular Devices, San Jose, CA). Calcium mobilization was monitored for 5 min and 10 μL 6×LPA in HBSS/20 mM Hepes/0.1% bovine serum albumin (BSA) was added to the cells 5 seconds into the assay.
To determine the LPAR1 antagonist activity of test compounds, cells were pre-incubated with test compound at a dose range of 0.5 nM to 10 μM, followed by LPA at EC80 concentration (100 nM). After dye loading, cells were removed from the incubator and 0.3 μL of 200× antagonist was added. Cells were incubated for 60 minutes at 37° C. Antagonist activity was measured on a FLIPR Tetra. Calcium mobilization was monitored for 3.5 minutes and 10 μL 6×EC80 LPA in HBSS, 20 mM HEPES, and 0.1% BSA was added to the cells 5 seconds into the assay. Signal amplitude (Maximum minus minimum) values were plotted against log10 of antagonist concentration using Dose Response Tool (Gilead Sciences Inc.) to determine […].
To assess the antagonistic potential of exemplified compounds […] were determined for Compounds 1 to 66 in the LPAR1 calcium mobilization assay. The compound numbers correspond to the compound numbers in Examples 1 to 18. N/A=not available.
Consider `C[C@@H](OC(=O)Nc1c(-c2ccc(C(=O)Nc3ccc(-c4ccncc4)cc3)cn2)nnn1C)c1cc(F)cnc1F` [Compound 41, (R)-1-(2,5-difluoro-pyridin-3-yl)ethyl (1-methyl-4-(5-((4-(pyridin-4-yl)phenyl)carbam-oyl)pyridin-2-yl)-1H-1,2,3-triazol-5-yl)carbamate], for which the EC50 was 61 nM.

Consider `C[C@@H](OC(=O)Nc1c(-c2ccc(C(=O)Nc3cnc(C(F)(F)F)s3)cn2)nnn1C)c1cc(F)cnc1F` [Compound 42, (R)-1-(2,5-difluoro-pyridin-3-yl)ethyl (1-methyl-4-(5-((2-(trifluoromethyl)-thiazol-5-yl)-carbamoyl)pyridin-2-yl)-1H-1,2,3-triazol-5-yl)-carbamate], for which the EC50 was 10.1 nM.

Take `C[C@@H](OC(=O)Nc1c(-c2ccc(C(=O)Nc3cc(Cl)nc(C(F)(F)F)c3)cn2)nnn1C)c1cc(F)cnc1F` [Compound 43, (R)-1-(2,5-difluoro-pyridin-3-yl)ethyl (4-(5-((2-chloro-6-(trifluoromethyl)-pyridin-4-yl)-carbamoyl)pyridin-2-yl)-1-methyl-1H-1,2,3-triazol-5-yl)-carbamate]: the EC50 came out at 9 nM.

Consider `C[C@@H](OC(=O)Nc1c(-c2ccc(C(=O)NC3CC(c4ccccc4)C3)cn2)nnn1C)c1cc(F)cnc1F` (stereo partly drawn) [Compound 44, (R)-1-(2,5-difluoro-pyridin-3-yl)ethyl (1-methyl-4-(5-((3-phenylcyclo-butyl)carbamoyl)-pyridin-2-yl)-1H-1,2,3-triazol-5-yl)-carbamate], for which the EC50 is 273 nM.

In the case of `C[C@@H](OC(=O)Nc1c(-c2ccc(C(=O)Nc3ccnc(C(F)(F)F)c3)cn2)nnn1C)c1cc(F)cnc1Cl` [Compound 45, (R)-1-(2-chloro-5-fluoropyridin-3-yl)ethyl (1-methyl-4-(5-((2-(trifluoromethyl)pyridin-4-yl)carbamoyl)pyridin-2-yl)-1H-1,2,3-triazol-5-yl)carbamate], the EC50 is less than 4.6 nM.

On to `C[C@@H](OC(=O)Nc1c(-c2ccc(C(=O)NC34CC(F)(C3)C4)cn2)nnn1C)c1cc(F)cnc1Cl` [Compound 46, (R)-1-(2-chloro-5-fluoropyridin-3-yl)ethyl (4-(5-((3-fluorobicyclo-[1.1.1]pentan-1-yl)carbamoyl)-pyridin-2-yl)-1-methyl-1H-1,2,3-triazol-5-yl)-carbamate], for which the EC50 came to 88.1 nM.

Regarding `C[C@@H](OC(=O)Nc1c(-c2ccc(C(=O)NC34CC(C#N)(C3)C4)cn2)nnn1C)c1cc(F)cnc1Cl` [Compound 47, (R)-1-(2-chloro-5-fluoropyridin-3-yl)ethyl (4-(5-((3-cyanobicyclo-[1.1.1]pentan-1-yl)carbamoyl)-pyridin-2-yl)-1-methyl-1H-1,2,3-triazol-5-yl)-carbamate], the EC50 is less than 4.6 nM.

Take `C[C@@H](OC(=O)Nc1c(-c2ccc(C(=O)NC34CC(C(F)F)(C3)C4)cn2)nnn1C)c1cc(F)cnc1Cl` [Compound 48, (R)-1-(2-chloro-5-fluoropyridin-3-yl)ethyl (4-(5-((3-(difluoromethyl)-bicyclo[1.1.1]-pentan-1-yl)-carbamoyl)pyridin-2-yl)-1-methyl-1H-1,2,3-triazol-5-yl)carbamate]: the EC50 turned out to be 80.7 nM.

Turning to `C[C@@H](OC(=O)Nc1c(-c2ccc(C(=O)Nc3ccc(C#N)cc3)cn2)nnn1C)c1cc(F)cnc1Cl` [Compound 49, (R)-1-(2-chloro-5-fluoropyridin-3-yl)ethyl (4-(5-((4-cyanophenyl)-carbamoyl)pyridin-2-yl)-1-methyl-1H-1,2,3-triazol-5-yl)carbamate], the EC50 stood at 74.3 nM.

`C[C@@H](OC(=O)Nc1c(-c2ccc(C(=O)Nc3ccnc(C#N)c3)cn2)nnn1C)c1cc(F)cnc1Cl` [Compound 50, (R)-1-(2-chloro-5-fluoropyridin-3-yl)ethyl (4-(5-((2-cyanopyridin-4-yl)carbamoyl)-pyridin-2-yl)-1-methyl-1H-1,2,3-triazol-5-yl)-carbamate]: the EC50 is 8.7 nM.

Take `C[C@@H](OC(=O)Nc1c(-c2ccc(C(=O)Nc3cc(Cl)nc(Cl)c3)cn2)nnn1C)c1cc(F)cnc1Cl` [Compound 51, (R)-1-(2-chloro-5-fluoropyridin-3-yl)ethyl (4-(5-((2,6-dichloro-pyridin-4-yl)-carbamoyl)pyridin-2-yl)-1-methyl-1H-1,2,3-triazol-5-yl)carbamate]: the half-maximal effective concentration (EC50) was less than 4.6 nM.

Turning to `C[C@@H](OC(=O)Nc1c(-c2ccc(C(=O)Nc3nc(C(F)(F)F)co3)cn2)nnn1C)c1cc(F)cnc1Cl` [Compound 52], the EC50 amounted to 281 nM.

As for `C[C@@H](OC(=O)Nc1c(-c2ccc(C(=O)Nc3ncc(C(F)(F)F)s3)cn2)nnn1C)c1cc(F)cnc1Cl` [Compound 53, (R)-1-(2-chloro-5-fluoropyridin-3-yl)ethyl (1-methyl-4-(5-((5-(trifluoro-methyl)thiazol-2-yl)carbamoyl)-pyridin-2-yl)-1H-1,2,3-triazol-5-yl)carbamate], the EC50 is 19.4 nM.

For the molecule `C#CC12CC(NC(=O)c3ccc(-c4nnn(C)c4NC(=O)O[C@H](C)c4cc(F)cnc4Cl)nc3)(C1)C2` [Compound 54, (R)-1-(2-chloro-5-fluoropyridin-3-yl)ethyl (4-(5-((3-ethynylbicyclo-[1.1.1]pentan-1-yl)carbamoyl)-pyridin-2-yl)-1-methyl-1H-1,2,3-triazol-5-yl)-carbamate], the EC50 is less than 4.6 nM.

With `C[C@@H](OC(=O)Nc1c(-c2ccc(C(=O)NC34CC(Cl)(C3)C4)cn2)nnn1C)c1cccnc1F` [Compound 55, (R)-1-(2-fluoropyridin-3-yl)ethyl (4-(5-((3-chlorobicyclo[1.1.1]pentan-1-yl)carbamoyl)pyridin-2-yl)-1-methyl-1H-1,2,3-triazol-5-yl)carbamate], the EC50 was 58.1 nM.

For `C[C@@H](OC(=O)Nc1c(-c2ccc(C(=O)NC34CC(C(F)(F)F)(C3)C4)cn2)nnn1C)c1cccnc1F` [Compound 56, (R)-1-(2-fluoropyridin-3-yl)ethyl (1-methyl-4-(5-((3-(trifluoro-methyl)bicyclo[1.1.1]-pentan-1-yl)carbamoyl)-pyridin-2-yl)-1H-1,2,3-triazol-5-yl)carbamate], the EC50 is 139 nM.

On to `C[C@@H](OC(=O)Nc1c(-c2ccc(C(=O)NC34CC(F)(C3)C4)cn2)nnn1C)c1cccnc1F` [Compound 57, (R)-1-(2-fluoropyridin-3-ylethyl (4-(5-((3-fluorobicyclo[1.1.1]-pentan-1-yl)carbamoyl)-pyridin-2-yl)-1-methyl-1H-1,2,3-triazol-5-yl)-carbamate], for which the EC50 was determined as 717 nM.

Regarding `Cc1nc(-c2nnn(C)c2NC(=O)O[C@H](C)c2cccnc2Cl)ccc1C(=O)NC12CC(Cl)(C1)C2` [Compound 58, (R)-1-(2-chloropyridin-3-yl)ethyl (4-(5-((3-chlorobicyclo[1.1.1]pentan-1-yl)carbamoyl)-6-methylpyridin-2-yl)-1-methyl-1H-1,2,3-triazol-5-yl)carbamate], the EC50 turned out to be 48.3 nM.

Turning to `C[C@@H](OC(=O)Nc1c(-c2ncc(C(=O)NC34CC(C#N)(C3)C4)cc2F)nnn1C)c1cccnc1Cl` [Compound 59, (R)-1-(2-chloropyridin-3-yl)ethyl (4-(5-((3-cyanobicyclo[1.1.1]pentan-1-yl)carbamoyl)-3-fluoropyridin-2-yl)-1-methyl-1H-1,2,3-triazol-5-yl)carbamate], the EC50 is 23.2 nM.

In the case of `C[C@@H](OC(=O)Nc1c(-c2ccc(C(=O)NC34CC(F)(C3)C4)c(Cl)n2)nnn1C)c1cccnc1Cl` [Compound 60, (R)-1-(2-chloropyridin-3-yl)ethyl (4-(6-chloro-5-((3-fluorobicyclo[1.1.1]pentan-1-yl)carbamoyl)pyridin-2-yl)-1-methyl-1H-1,2,3-triazol-5-yl)carbamate], the EC50 came out at 93.4 nM.

For the molecule `C[C@@H](OC(=O)Nc1c(-c2cc(F)c(C(=O)NC34CC(C#N)(C3)C4)cn2)nnn1C)c1cccnc1Cl` [Compound 61, (R)-1-(2-chloropyridin-3-yl)ethyl (4-(5-((3-cyanobicyclo[1.1.1]pentan-1-yl)carbamoyl)-4-fluoropyridin-2-yl)-1-methyl-1H-1,2,3-triazol-5-yl)carbamate], the concentration giving a half-maximal response (EC50) was found to be 233 nM.

Take `C[C@@H](OC(=O)Nc1c(-c2ccc(C(=O)NC34CC(C#N)(C3)C4)c(C(F)(F)F)n2)nnn1C)c1cccnc1Cl` [Compound 62, (R)-1-(2-chloropyridin-3-yl)ethyl (4-(5-((3-cyanobicyclo[1.1.1]pentan-1-yl)carbamoyl)-6-(trifluoromethyl)pyridin-2-yl)-1-methyl-1H-1,2,3-triazol-5-yl)carbamate]: the EC50 is 14.5 nM.
